We go through three compounds from patent publication US20120065205A1, “PYRAZINE CARBOXAMIDE OREXIN RECEPTOR ANTAGONISTS” (priority 2009, published 2012).

As usually defined, the Ki is a dissociation constant, usually derived from enzyme kinetics or from competition with a known ligand. Low values mean a stronger hold on the target, high ones a looser hold on the target.

The test has as its target T1, OX2R (Homo sapiens, UniProt O43614).
T1 construct: expressed in transfected cells; host or cells: CHO cells (membranes)
T1 sequence (O43614 1-444): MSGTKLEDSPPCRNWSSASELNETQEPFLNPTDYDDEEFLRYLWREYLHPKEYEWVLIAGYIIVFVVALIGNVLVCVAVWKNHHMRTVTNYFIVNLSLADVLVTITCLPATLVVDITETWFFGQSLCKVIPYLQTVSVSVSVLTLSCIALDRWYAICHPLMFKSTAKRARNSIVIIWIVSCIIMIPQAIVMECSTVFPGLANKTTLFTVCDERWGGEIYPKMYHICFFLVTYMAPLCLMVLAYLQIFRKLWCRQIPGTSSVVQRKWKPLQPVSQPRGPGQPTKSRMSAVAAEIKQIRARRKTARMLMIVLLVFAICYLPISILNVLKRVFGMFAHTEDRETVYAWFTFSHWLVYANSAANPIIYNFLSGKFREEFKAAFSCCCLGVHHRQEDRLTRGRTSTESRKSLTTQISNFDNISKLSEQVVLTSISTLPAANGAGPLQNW
Kind of test: radioligand binding assay, membranes from CHO cells expressing OX2 receptor. To be noted: CHO cell membranes. The procedure:
The utility of the compounds in accordance with the present invention as orexin receptor OX1R and/or OX2R antagonists may be readily determined without undue experimentation by methodology well known in the art, including the “FLIPR Ca^2+ Flux Assay” (Okumura et al., Biochem. Biophys. Res. Comm. 280:976-981, 2001). In a typical experiment the OX1 and OX2 receptor antagonistic activity of the compounds of the present invention was determined in accordance with the following experimental method. For intracellular calcium measurements, Chinese hamster ovary (CHO) cells expressing the rat orexin-1 receptor or the human orexin-2 receptor, are grown in Iscove's modified DMEM containing 2 mM L-glutamine, […], 1% hypoxanthine-thymidine supplement, 100 U/ml penicillin, 100 ug/ml streptomycin and 10% heat-inactivated fetal calf serum (FCS). The cells are seeded at 20,000 cells/well into Becton-Dickinson black 384-well clear bottom sterile plates coated with poly-D-lysine. All reagents were from GIBCO-Invitrogen Corp. The seeded plates are incubated overnight at 37° C. and 5% CO2. […] Within the Fluorescent Imaging Plate Reader (FLIPR, Molecular Devices), test compounds are added to the plate in a volume of 25 ul, incubated for 5 min and finally 25 ul of agonist is added. Fluorescence is measured for each well at 1 second intervals for 5 minutes and the height of each fluorescence peak is compared to the height of the fluorescence peak induced by 70 pM Ala-6,12 orexin-A with buffer in place of antagonist. […] Alternatively, compound potency can be assessed by a radioligand binding assay (described in Bergman et. al. Bioorg. Med. Chem. Lett. 2008, 18, 1425-1430) in which the inhibition constant (Ki) is determined in membranes prepared from CHO cells expressing either the OX1 or OX2 receptor. The intrinsic orexin receptor antagonist activity of a compound which may be used in the present invention may be determined by these assays.
With `COc1ccc(CNC(=O)c2nc(-c3cncc(C)c3)cnc2-c2ccccc2)nc1OC` [1-5, N-[(5,6-dimethoxypyridin-2-yl)methyl]-6-(5-methylpyridin-3-yl)-3-phenylpyrazine-2-carboxamide], affinity was put at a Ki of 1.4 nM.

Turning to `COc1ccc(CNC(=O)c2nc(-c3cncc(Cl)c3)cnc2-c2ccccc2F)nc1OC` [1-9, 6-(5-chloropyridin-3-yl)-N-[(5,6-dimethoxypyridin-2-yl)methyl]-3-(2-fluorophenyl)pyrazine-2-carboxamide], affinity was put at a Ki of 3.9 nM.

In turn, `COc1ccc(CNC(=O)c2nc(-c3cc(C)cc(C)c3)cnc2N2CCOCC2)nc1OC` [2-5, N-[(5,6-dimethoxypyridin-2-yl)methyl]-6-(3,5-dimethylphenyl)-3-(morpholin-4-yl)pyrazine-2-carboxamide] came in with a Ki of 33 nM.
